Experimental data: BindingDB's records for doi:10.1016/j.chembiol.2017.02.003 (University of Colorado, 2017)

Target: T1, Caspase-1 (Homo sapiens, UniProt P29466)
T1 sequence (P29466 whole entry): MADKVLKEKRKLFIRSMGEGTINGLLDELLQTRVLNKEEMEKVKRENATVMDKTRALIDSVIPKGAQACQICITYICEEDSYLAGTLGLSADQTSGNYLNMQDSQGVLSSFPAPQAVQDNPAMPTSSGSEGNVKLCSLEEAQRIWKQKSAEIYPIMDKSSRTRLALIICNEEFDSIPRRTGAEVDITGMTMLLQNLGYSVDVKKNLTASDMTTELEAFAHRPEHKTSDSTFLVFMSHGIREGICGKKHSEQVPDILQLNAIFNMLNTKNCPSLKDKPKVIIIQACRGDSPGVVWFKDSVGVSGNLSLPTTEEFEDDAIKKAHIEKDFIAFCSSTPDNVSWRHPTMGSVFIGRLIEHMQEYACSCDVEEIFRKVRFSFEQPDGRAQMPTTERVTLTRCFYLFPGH
Assay: Caspase Catalytic Activity Assay
Conditions: pH 7.4
Method: (§1) ECB (Enzo Caspase Buffer): 50 mM HEPES (pH 7.4), 100 mM NaCl, 0.5% Tween 20, 10 mM DTT, and 10% glycerol; SCB (Standard Caspase Buffer): 20 mM PIPES (pH 7.5), 100 mM NaCl, 1 mM EDTA, 10 mM DTT, and 10% sucrose; HCB (High-Citrate Buffer): 50 mM Tris-HCl (pH 7.5), 1 M sodium citrate, 10 mM DTT, and 10% sucrose. Activity was measured as the change in luminescent signal for at least 30 min.

Row | Structure (SMILES) | IC50 [nM]
1 | CC(C(=O)O)c1cccc(C(=O)c2ccccc2)c1 (stereo not given) [2-(3-benzoylphenyl)propanoic acid] | > 66000
2 | O=C(O)CCC(=O)c1ccc(-c2ccccc2)cc1 [3-(4-biphenylylcarbonyl)propionic acid] | 4400
3 | COc1ccc2cc([C@H](C)C(=O)O)ccc2c1 [(2S)-2-(6-methoxynaphthalen-2-yl)propanoic acid] | > 66000
4 | CC(C(=O)O)c1ccc(N2Cc3ccccc3C2=O)cc1 (stereo not drawn) [(+)-2-(4-(1-oxoisoindolin-2-yl)phenyl)propanoic acid] | 3600

Continued, values first:

Row | IC50 [nM] | Structure (SMILES)
5 | 35000 | O=C(O)Cc1ccc(-c2ccccc2)cc1 [Felbinac]
6 | 1600 | CC(C(=O)O)c1ccc(C(=O)c2ccccc2)s1 (stereo not given) [Tiaprofenic acid]
7 | 18000 | O=C(c1ccccc1)c1ccc2n1CCC2C(=O)O (stereo not given) [Toradol]

Target: T2, Caspase-3 (Homo sapiens, UniProt P42574)
T2 sequence (P42574 whole entry): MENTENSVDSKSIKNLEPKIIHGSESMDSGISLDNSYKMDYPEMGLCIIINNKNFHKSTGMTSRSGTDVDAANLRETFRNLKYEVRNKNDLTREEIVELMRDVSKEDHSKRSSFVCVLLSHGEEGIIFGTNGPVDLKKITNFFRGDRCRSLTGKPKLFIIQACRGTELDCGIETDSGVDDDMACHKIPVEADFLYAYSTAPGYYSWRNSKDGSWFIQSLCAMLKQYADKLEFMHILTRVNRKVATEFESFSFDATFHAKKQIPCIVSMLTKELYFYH
Assay: Caspase Catalytic Activity Assay
Conditions: pH 7.4
Method: as §1

Row | Structure (SMILES) | IC50 [nM]
8 | CC(C(=O)O)c1cccc(C(=O)c2ccccc2)c1 (stereo not given) [2-(3-benzoylphenyl)propanoic acid] | 50000
9 | O=C(O)CCC(=O)c1ccc(-c2ccccc2)cc1 [3-(4-biphenylylcarbonyl)propionic acid] | 1200
10 | COc1ccc2cc([C@H](C)C(=O)O)ccc2c1 [(2S)-2-(6-methoxynaphthalen-2-yl)propanoic acid] | 55000
11 | CC(C(=O)O)c1ccc(N2Cc3ccccc3C2=O)cc1 (stereo not drawn) [(+)-2-(4-(1-oxoisoindolin-2-yl)phenyl)propanoic acid] | 1400

Second part, the molecule after the results:

Row | IC50 [nM] | Structure (SMILES)
12 | 14000 | O=C(O)Cc1ccc(-c2ccccc2)cc1 [Felbinac]
13 | 810 | CC(C(=O)O)c1ccc(C(=O)c2ccccc2)s1 (stereo not given) [Tiaprofenic acid]
14 | 2500 | O=C(c1ccccc1)c1ccc2n1CCC2C(=O)O (stereo not given) [Toradol]

Target: T3, Caspase-4 (Homo sapiens, UniProt P49662)
T3 sequence (P49662 whole entry): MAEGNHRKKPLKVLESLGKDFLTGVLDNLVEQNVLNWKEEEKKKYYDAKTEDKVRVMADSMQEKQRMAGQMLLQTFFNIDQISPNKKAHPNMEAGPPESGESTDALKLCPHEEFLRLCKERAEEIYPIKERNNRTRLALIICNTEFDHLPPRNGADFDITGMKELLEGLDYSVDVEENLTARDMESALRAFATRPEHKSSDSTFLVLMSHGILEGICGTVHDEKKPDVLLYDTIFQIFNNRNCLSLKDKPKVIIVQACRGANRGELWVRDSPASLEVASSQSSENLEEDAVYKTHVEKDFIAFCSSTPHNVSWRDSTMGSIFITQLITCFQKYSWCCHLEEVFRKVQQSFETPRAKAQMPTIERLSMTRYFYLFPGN
Assay: Caspase Catalytic Activity Assay
Conditions: pH 7.4
Method: as §1

Row | Structure (SMILES) | IC50 [nM]
15 | CC(C(=O)O)c1cccc(C(=O)c2ccccc2)c1 (stereo not given) [2-(3-benzoylphenyl)propanoic acid] | 10000
16 | O=C(O)CCC(=O)c1ccc(-c2ccccc2)cc1 [3-(4-biphenylylcarbonyl)propionic acid] | 570
17 | COc1ccc2cc([C@H](C)C(=O)O)ccc2c1 [(2S)-2-(6-methoxynaphthalen-2-yl)propanoic acid] | 15000
18 | CC(C(=O)O)c1ccc(N2Cc3ccccc3C2=O)cc1 (stereo not drawn) [(+)-2-(4-(1-oxoisoindolin-2-yl)phenyl)propanoic acid] | 570

More lines, now with the values ahead:

Row | IC50 [nM] | Structure (SMILES)
19 | 2000 | O=C(O)Cc1ccc(-c2ccccc2)cc1 [Felbinac]
20 | 380 | CC(C(=O)O)c1ccc(C(=O)c2ccccc2)s1 (stereo not given) [Tiaprofenic acid]
21 | 860 | O=C(c1ccccc1)c1ccc2n1CCC2C(=O)O (stereo not given) [Toradol]

Target: T4, Caspase-5 (Homo sapiens, UniProt P51878)
T4 sequence (P51878 whole entry): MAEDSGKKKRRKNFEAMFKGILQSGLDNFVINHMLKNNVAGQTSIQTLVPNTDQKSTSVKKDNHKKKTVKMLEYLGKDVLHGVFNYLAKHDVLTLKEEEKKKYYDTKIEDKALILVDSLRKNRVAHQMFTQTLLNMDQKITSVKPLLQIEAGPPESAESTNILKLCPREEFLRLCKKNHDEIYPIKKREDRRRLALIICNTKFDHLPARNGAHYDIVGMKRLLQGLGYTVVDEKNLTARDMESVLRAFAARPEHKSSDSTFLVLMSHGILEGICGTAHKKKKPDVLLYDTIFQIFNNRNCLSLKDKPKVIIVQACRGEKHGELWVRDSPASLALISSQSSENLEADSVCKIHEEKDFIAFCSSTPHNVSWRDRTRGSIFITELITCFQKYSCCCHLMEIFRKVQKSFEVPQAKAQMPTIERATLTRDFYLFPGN
Assay: Caspase Catalytic Activity Assay
Conditions: pH 7.4
Method: as §1

Row | Structure (SMILES) | IC50 [nM]
22 | CC(C(=O)O)c1cccc(C(=O)c2ccccc2)c1 (stereo not given) [2-(3-benzoylphenyl)propanoic acid] | 10000
23 | O=C(O)CCC(=O)c1ccc(-c2ccccc2)cc1 [3-(4-biphenylylcarbonyl)propionic acid] | 870
24 | COc1ccc2cc([C@H](C)C(=O)O)ccc2c1 [(2S)-2-(6-methoxynaphthalen-2-yl)propanoic acid] | 11000
25 | CC(C(=O)O)c1ccc(N2Cc3ccccc3C2=O)cc1 (stereo not drawn) [(+)-2-(4-(1-oxoisoindolin-2-yl)phenyl)propanoic acid] | 590

More lines, now with the values ahead:

Row | IC50 [nM] | Structure (SMILES)
26 | 2600 | O=C(O)Cc1ccc(-c2ccccc2)cc1 [Felbinac]
27 | 470 | CC(C(=O)O)c1ccc(C(=O)c2ccccc2)s1 (stereo not given) [Tiaprofenic acid]
28 | 1000 | O=C(c1ccccc1)c1ccc2n1CCC2C(=O)O (stereo not given) [Toradol]

Target: T5, Caspase-9 (Homo sapiens, UniProt P55211)
T5 sequence (P55211 whole entry): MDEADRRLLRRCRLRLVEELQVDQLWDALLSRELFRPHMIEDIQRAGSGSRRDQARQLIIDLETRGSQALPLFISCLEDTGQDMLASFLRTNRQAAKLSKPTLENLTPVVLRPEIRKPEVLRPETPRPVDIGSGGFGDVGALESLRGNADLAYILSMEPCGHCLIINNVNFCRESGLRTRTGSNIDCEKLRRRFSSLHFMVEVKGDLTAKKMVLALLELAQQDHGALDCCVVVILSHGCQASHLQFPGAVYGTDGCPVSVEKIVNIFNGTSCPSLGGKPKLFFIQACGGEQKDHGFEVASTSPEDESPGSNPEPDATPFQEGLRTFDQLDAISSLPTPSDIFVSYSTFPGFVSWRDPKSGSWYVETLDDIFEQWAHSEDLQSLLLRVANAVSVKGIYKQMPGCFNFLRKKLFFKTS
Assay: Caspase Catalytic Activity Assay
Conditions: pH 7.4
Method: as §1

Row | Structure (SMILES) | IC50 [nM]
29 | CC(C(=O)O)c1cccc(C(=O)c2ccccc2)c1 (stereo not given) [2-(3-benzoylphenyl)propanoic acid] | 10000
30 | O=C(O)CCC(=O)c1ccc(-c2ccccc2)cc1 [3-(4-biphenylylcarbonyl)propionic acid] | 760
31 | COc1ccc2cc([C@H](C)C(=O)O)ccc2c1 [(2S)-2-(6-methoxynaphthalen-2-yl)propanoic acid] | 10000
32 | CC(C(=O)O)c1ccc(N2Cc3ccccc3C2=O)cc1 (stereo not drawn) [(+)-2-(4-(1-oxoisoindolin-2-yl)phenyl)propanoic acid] | 300

Further lines, results first:

Row | IC50 [nM] | Structure (SMILES)
33 | 1800 | O=C(O)Cc1ccc(-c2ccccc2)cc1 [Felbinac]
34 | 2200 | CC(C(=O)O)c1ccc(C(=O)c2ccccc2)s1 (stereo not given) [Tiaprofenic acid]
35 | 850 | O=C(c1ccccc1)c1ccc2n1CCC2C(=O)O (stereo not given) [Toradol]
